Test results published in patent publication EP4806904A1, “POLYPEPTIDE AND USE THEREOF” (Sichuan Gooddoctor Panxi Pharmaceutical Co. Ltd, priority 2023, dated 2026).
Where a SMILES comes first, the peptide text is derived from it. [ ]: non-standard residue; d: D form.

What was measured:
[1] = system: primary neural stem cells (NSCs); experiment: Differentiation of primary neural stem cells, βIII-tubulin fluorescence and Neurite Outgrowth Assay; assay type: cell-based, SD rats; conditions: 100 µg/mL; for neurite outgrowth (total neurite length, maximum neurite length, neurite terminals, neurite initiation points) / Longest neurite length / Neurite initiation points (branches) / Number of neurite terminals / Total neurite length / mean fluorescence intensity of the neuronal marker protein βIII-tubulin / Average fluorescence intensity: 4 days; for neurite outgrowth (total neurite length, maximum neurite length, neurite terminals, neurite initiation points): Neurite Outgrowth Assay; for neurite outgrowth (total neurite length, maximum neurite length, neurite terminals, neurite initiation points) / mean fluorescence intensity of the neuronal marker protein βIII-tubulin: in words; for Longest neurite length / Neurite initiation points (branches) / Number of neurite terminals / Total neurite length / Average fluorescence intensity: significance vs blank control group; for mean fluorescence intensity of the neuronal marker protein βIII-tubulin: vs blank control group; for differentiation of NSCs into neuronal cells: conclusion based on the results of the two analytical methods; for Average fluorescence intensity: βIII-tubulin
Method: This part of the experiment requires feeding male and female rats in advance, then extracting hippocampal neural stem cells from newborn SD rats within 24 h of birth, culturing them to P3 for identification, and then using them for experiments. • (1) Extraction and culture of primary neural stem cells (NSCs) • (2) NSCs that have been passaged to P3 and have good viability were seeded in differentiation medium (2% FBS+DMEM/F12 1:1 medium) in 48-well plates with a cell concentration of 5×10^4 cells/mL per well. After overnight culture for cell adherence, the cells were treated with drugs; • (3) Drug treatment was applied. The final concentration of the polypeptide of the invention was 100 µg/mL. Meanwhile, nerve growth factor (NGF, 50 ng/mL) was set as the positive control, and the cells were cultured in the incubator for another 4 days; • (4) Immunofluorescence staining (primary antibody βIII-tubulin) was performed after 4 days of treatment. The average fluorescence intensity of βIII-tubulin was analyzed and the Neurite Outgrowth Assay was performed using a high-content cell imaging analysis system.

[2] = system: Brain microvascular endothelial cells (BMECs) and brain microvascular smooth muscle cells (BMVSMCs); experiment: In vitro angiogenesis assay, BMEC/BMVSMC co-culture on matrigel; assay type: cell-based, mouse; conditions: 0.1 mg/L, 48 h
Method: First, mouse brain microvascular pellets were obtained by differential centrifugation. Brain microvascular endothelial cells (BMECs) and brain microvascular smooth muscle cells (BMVSMCs) were isolated by digestion with collagenase II, respectively, and cultured in a cell incubator with 5% CO2 at 37°C . Cells at passages 3-6 in good growth condition and logarithmic growth phase were selected for the in vitro angiogenesis assay.
One night before the experiment, the high-concentration matrigel was transferred from a -20°C or -80°C refrigerator to a 4°C refrigerator and allowed to thaw slowly overnight in the 4°C refrigerator. Pipette tips required for the formal experiment were sterilized in advance and pre-cooled in a 4°C refrigerator for subsequent use.
On the day of the experiment, the matrigel was added to a 96-well plate 1 h in advance and placed in a 37°C cell incubator until it solidified. Subsequently, the cells were washed 2 times with 2 mL of PBS buffer, followed by digestion with 0.25% trypsin to obtain EC and VSMC pellets, respectively, and cell counting was performed. A uniform cell suspension containing 5×10^3 BMVSMCs and 1×10^3 BMECs per well was then seeded into the 96-well plate pre-coated with the matrigel, and cultured in a 37°C, 5% CO2 cell incubator for 3 days.
During the culture period, tube formation was observed daily. The medium was changed on day 4, followed by treatment with the polypeptide of the invention at 0.1 mg/L or VEGFA at 10/15/20 ng/L for 48 h, respectively.
On day 5, the cell nuclei and live cells were labeled with Hoechst 33342 and Calcein AM, respectively. High-content brightfield and fluorescence imaging were then performed using a high-content screening system. Finally, angiogenesis in each treatment group was analyzed using the Angiogenesis Analyzer plugin for ImageJ, and statistical analysis was carried out with GraphPad Prism 10.

[3] = significance vs blank control group

Compound	neurite outgrowth (total neurite length, maximum neurite length, neurite terminals, neurite initiation points) [1]	Longest neurite length [1]	Neurite initiation points (branches) [1]	Number of neurite terminals [1]	Total neurite length [1]	Branch length [2, 3]	Branch length ([2]; vs normal group, in words)	number of junctions ([2]; vs normal group, in words)	mean fluorescence intensity of the neuronal marker protein βIII-tubulin [1]	Cell count [2, 3]	cell proliferation ([2]; vs normal group, in words)	differentiation of NSCs into neuronal cells [1]	Average fluorescence intensity [1]	Number of intersections [2, 3]	angiogenesis-promoting effects ([2]; vs normal group, in words)
H-QLPAPGTL-OH [Compound 22, H-Gln-Leu-Pro-Ala-Pro-Gly-Thr-Leu-OH]	promote neurite outgrowth	* (*p < 0.05)	* (*p < 0.05)	* (*p < 0.05)	* (*p < 0.05)	* (*p < 0.05)	promoting effects	no significant effects							
CC(C)C[C@H](N)C(=O)N1CCC[C@H]1C(=O)N[C@@H](C)C(=O)N1CCC[C@H]1C(=O)O [Compound 31, H-Leu-Pro-Ala-Pro-OH] (H-LPAP-OH)						** (**p < 0.01)			tendency to enhance						
CC(C)C[C@H](NC(=O)[C@@H](NC(=O)CNC(=O)[C@@H]1CCCN1C(=O)[C@H](C)NC(=O)[C@H]1CCCN1C(=O)[C@H](CC(C)C)NC(=O)[C@H](C)N)[C@@H](C)O)C(=O)O [Compound 4, H-Ala-Leu-D-Pro-Ala-Pro-Gly-Thr-Leu-OH] (H-AL[dP]APGTL-OH)		*** (***p < 0.001)	** (**p < 0.01)	** (**p < 0.01)	** (**p < 0.01)					* (*p < 0.05)	only promoted cell proliferation				
CC(C)C[C@H](NC(=O)[C@H](C)N)C(=O)N1CCC[C@H]1C(=O)N[C@@H](C)C(=O)O [Compound 35, H-Ala-Leu-Pro-Ala-OH] (H-ALPA-OH)	promote neurite outgrowth	** (**p < 0.01)	* (*p < 0.05)	* (*p < 0.05)	* (*p < 0.05)				significant increase	** (**p < 0.01)	only promoted cell proliferation	promote the differentiation of NSCs into neuronal cells with stable effects	* (*p < 0.05)		
H-AKNQLPAPGTLQHFC-OH [Compound 24, H-Ala-Lys-Asn-Gln-Leu-Pro-Ala-Pro-Gly-Thr-Leu-Gln-His-Phe-Cys-OH]			* (*p < 0.05)						significant increase				* (*p < 0.05)		
Ac-ALPAPGTL-OH [Compound 9, Ac-Ala-Leu-Pro-Ala-Pro-Gly-Thr-Leu-OH]						* (*p < 0.05)	promoting effects	no significant effects							
H-APGTL-OH [Compound 34, H-Ala-Pro-Gly-Thr-Leu-OH]	promote neurite outgrowth	* (*p < 0.05)	* (*p < 0.05)	** (**p < 0.01)	* (*p < 0.05)	** (**p < 0.01)			significant increase	** (**p < 0.01)		promote the differentiation of NSCs into neuronal cells with stable effects	* (*p < 0.05)	** (**p < 0.01)	exhibited angiogenesis-promoting effects
H-PAPGTL-OH [Compound 26, H-Pro-Ala-Pro-Gly-Thr-Leu-OH]						* (*p < 0.05)			tendency to enhance					* (*p < 0.05)	exhibited angiogenesis-promoting effects
H-LPAPG-OH [Compound 33, H-Leu-Pro-Ala-Pro-Gly-OH]						** (**p < 0.01)				** (**p < 0.01)				** (**p < 0.01)	exhibited angiogenesis-promoting effects
CC(C)C[C@H](NC(=O)[C@@H](NC(=O)CNC(=O)[C@@H]1CCCN1C(=O)[C@H](C)NC(=O)[C@@H]1CCCN1C(=O)[C@H](CC(C)C)NC(=O)[C@@H](C)N)[C@@H](C)O)C(=O)O [Compound 2, H-D-Ala-Leu-Pro-Ala-Pro-Gly-Thr-Leu-OH] (H-[dA]LPAPGTL-OH)		** (**p < 0.01)	* (*p < 0.05)	** (**p < 0.01)	** (**p < 0.01)	*** (***p < 0.001)				* (*p < 0.05)				** (**p < 0.01)	exhibited angiogenesis-promoting effects
CC(=O)N[C@@H](C)C(=O)N[C@@H](CC(C)C)C(=O)N1CCC[C@H]1C(=O)N[C@@H](C)C(=O)N1CCC[C@@H]1C(=O)NCC(=O)N[C@H](C(=O)N[C@@H](CC(C)C)C(N)=O)[C@@H](C)O [Compound 41, Ac-Ala-Leu-Pro-Ala-D-Pro-Gly-Thr-Leu-NH2] (Ac-ALPA[dP]GTL-NH2)	tendency to promote neurite outgrowth		* (*p < 0.05)		* (*p < 0.05)	** (**p < 0.01)				*** (***p < 0.001)				** (**p < 0.01)	exhibited angiogenesis-promoting effects
H-ALPAP-OH [Compound 30, H-Ala-Leu-Pro-Ala-Pro-OH]	tendency to promote neurite outgrowth	* (*p < 0.05)				* (*p < 0.05)			significant increase	** (**p < 0.01)			*** (***p < 0.001)		
CC(C)C[C@H](NC(=O)[C@@H](NC(=O)CN)[C@@H](C)O)C(=O)O [Compound 38, H-Gly-Thr-Leu-OH] (H-Gly-Thr-Leu-OH)						** (**p < 0.01)			tendency to enhance	* (*p < 0.05)				** (**p < 0.01)	exhibited angiogenesis-promoting effects
H-PAPGT-OH [Compound 27, H-Pro-Ala-Pro-Gly-Thr-OH]	promote neurite outgrowth	** (**p < 0.01)	** (**p < 0.01)	* (*p < 0.05)	* (*p < 0.05)										
H-ALPAPGT-OH [Compound 39, H-Ala-Leu-Pro-Ala-Pro-Gly-Thr-OH]						** (**p < 0.01)				* (*p < 0.05)				** (**p < 0.01)	exhibited angiogenesis-promoting effects
H-PIASQHLNLAPAPGTI-OH [Compound 23, H-Pro-Ile-Ala-Ser-Gln-His-Leu-Asn-Leu-Ala-Pro-Ala-Pro-Gly-Thr-Ile-OH]	tendency to promote neurite outgrowth			* (*p < 0.05)	* (*p < 0.05)				tendency to enhance						
H-LPAPGTL-OH [Compound 29, H-Leu-Pro-Ala-Pro-Gly-Thr-Leu-OH]									tendency to enhance						
H-ALGAPGTL-OH [Compound 14, H-Ala-Leu-Gly-Ala-Pro-Gly-Thr-Leu-OH]							no significant effects	promoting effects		* (*p < 0.05)				* (*p < 0.05)	
